The values that follow come from US7560468B2, “Substituted 1,4,8-triazaspiro[4,5]decan-2-one compounds” (Gruenenthal GmbH, priority 2004, dated 2009).

The inhibition is the change of the read-out against control, counted positive when it falls.

In test [1] the test system is batrachotoxin (BTX) binding site of the sodium channel. As to the kind of experiment: Affinity to the batrachotoxin (BTX) binding site of the sodium channel. Conditions: rat cerebrocortex synaptosomes, [3H]-batrachotoxinin A20 α-benzoate 10 nM; test concentration not given.
The target in a further test is T1, 5-HT transporter (Rattus norvegicus, UniProt P31652).
T1 construct: from tissue; host or cells: rat brain synaptosomes (marrow/medulla and pons), P2 fraction
T1 sequence (P31652 whole entry): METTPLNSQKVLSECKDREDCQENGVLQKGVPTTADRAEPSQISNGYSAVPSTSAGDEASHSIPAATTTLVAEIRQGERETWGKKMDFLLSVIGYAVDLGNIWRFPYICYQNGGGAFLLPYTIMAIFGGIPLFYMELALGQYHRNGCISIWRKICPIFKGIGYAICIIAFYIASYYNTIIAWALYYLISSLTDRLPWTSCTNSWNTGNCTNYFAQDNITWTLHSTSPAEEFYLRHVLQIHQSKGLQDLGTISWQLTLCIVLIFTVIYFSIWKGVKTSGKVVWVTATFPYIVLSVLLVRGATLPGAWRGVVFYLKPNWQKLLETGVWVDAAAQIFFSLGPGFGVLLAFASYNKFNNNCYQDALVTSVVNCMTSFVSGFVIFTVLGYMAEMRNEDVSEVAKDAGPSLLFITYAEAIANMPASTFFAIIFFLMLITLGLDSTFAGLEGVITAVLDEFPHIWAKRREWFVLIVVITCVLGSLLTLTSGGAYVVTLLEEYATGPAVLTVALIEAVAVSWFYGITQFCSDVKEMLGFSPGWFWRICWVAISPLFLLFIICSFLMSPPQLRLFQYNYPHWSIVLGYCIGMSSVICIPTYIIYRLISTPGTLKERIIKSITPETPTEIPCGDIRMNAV
As to the kind of experiment: Inhibition of 5-HT uptake in synaptosomes. It is filed as biochemical. Conditions: for inhibition at 1 µM: read-out: Uptake_5-HT, rat, 1 μM, % inhibition.

Consider `CCCCN1C(=O)C(C(C)C)NC12CCN(C(=S)Nc1ccccc1F)CC2` (stereo not drawn) [Example 122, 1-Butyl-3-isopropyl-2-oxo-1,4,8-triazaspiro[4,5]decan-8-thiocarboxylic acid (2-fluorobenzol)amide], for which the “BTX Inhibition” value in test [1] was 35. In addition, the “Uptake_5-HT, rat, 1 μM, % inhibition” value on 5-HT transporter was 32%.

Turning to `CCCCN1C(=O)C(C(C)C)NC12CCN(C(=S)Nc1cccc(C)c1)CC2` (stereo not drawn) [Example 124, 1-Butyl-3-isopropyl-2-oxo-1,4,8-triazaspiro[4,5]decan-8-thiocarboxylic acid m-tolylamide], the “BTX Inhibition” value in test [1] was 41. At 5-HT transporter, the inhibition at 1 µM came to 47%.

With `C=CCN1C(=O)C(C(C)C)NC12CCN(C(=S)Nc1cc(F)ccc1F)CC2` (stereo not drawn) [Example 128, 1-Allyl-3-isopropyl-2-oxo-1,4,8-triazaspiro[4,5]decan-8-thiocarboxylic acid (2,5-difluorobenzol)amide], in test [1], the “BTX Inhibition” value was found to be 33. In addition, at 5-HT transporter, the “Uptake_5-HT, rat, 1 μM, % inhibition” value is reported as 57%.

As to `C=CCNC(=S)N1CCC2(CC1)NC(CCSC)C(=O)N2Cc1ccccc1C#N` (stereo not drawn) [Example 129, 1-(2-Cyanobenzyl)-3-(2-methylsulfanylethyl)-2-oxo-1,4,8-triazaspiro[4,5]decan-8-thiocarboxylic acid allylamide], the “BTX Inhibition” value in test [1] is 36. Moreover, at 5-HT transporter, the inhibition at 1 µM is 41%.

`CCCCN1C(=O)C(CCSC)NC12CCN(C(=S)NCC1CCCCC1)CC2` (stereo not drawn) [Example 132, 1-Butyl-3-(2-methylsulfanylethyl)-2-oxo-1,4,8-triazaspiro[4,5]decan-8-thiocarboxylic acid cyclohexylmethylamide]: in test [1], the “BTX Inhibition” value was determined as 71. In addition, on 5-HT transporter, the inhibition at 1 µM was found to be 30%.

Consider `CC(C)C1NC2(CCN(C(=S)Nc3cc(Cl)ccc3Cl)CC2)N(Cc2ccccc2)C1=O` (stereo not drawn) [Example 136, 1-Benzyl-3-isopropyl-2-oxo-1,4,8-triazaspiro[4,5]decan-8-thiocarboxylic acid (2,5-dichlorobenzol)amide], for which the “BTX Inhibition” value in test [1] was determined as 66. Also, the “Uptake_5-HT, rat, 1 μM, % inhibition” value at 5-HT transporter came to 44%.

`CSCCC1NC2(CCN(C(=S)Nc3ccc(C(C)C)cc3)CC2)N(Cc2ccccc2)C1=O` (stereo not drawn) [Example 139, 1-Benzyl-3-(2-methylsulfanylethyl)-2-oxo-1,4,8-triazaspiro[4,5]decan-8-thiocarboxylic acid (4-isopropylbenzol)amide]: the “BTX Inhibition” value in test [1] is reported as 97. Further, at 5-HT transporter, the “Uptake_5-HT, rat, 1 μM, % inhibition” value is reported as 63%.

As for `CSCCC1NC2(CCN(C(=S)Nc3cc(F)ccc3F)CC2)N(Cc2ccccc2)C1=O` (stereo not drawn) [Example 140, 1-Benzyl-3-(2-methylsulfanylethyl)-2-oxo-1,4,8-triazaspiro[4,5]decan-8-thiocarboxylic acid (2,5-difluorobenzol)amide], in test [1], the “BTX Inhibition” value turned out to be 53. The “Uptake_5-HT, rat, 1 μM, % inhibition” value on 5-HT transporter was found to be 59%.

Turning to `CCCCN1C(=O)C(C(C)C)NC12CCN(C(=S)Nc1ccccc1C(=O)OC)CC2` (stereo not drawn) [Example 143, Methyl 2-[(1-butyl-3-isopropyl-2-oxo-1,4,8-triazaspiro[4,5]decan-8-carbothioyl)amino]-benzoate], the “BTX Inhibition” value in test [1] came to 51. Besides, on 5-HT transporter, the inhibition at 1 µM came out at 32%.

For `CCOC(=O)CN1C(=O)C(Cc2ccccc2)NC12CCN(C(=S)Nc1ccccc1C(=O)OC)CC2` (stereo not drawn) [Example 145, Methyl 2-[(3-benzyl-1-ethoxycarbonylmethyl-2-oxo-1,4,8-triazaspiro[4,5]decan-8-carbothioyl)amino]-benzoate], the “BTX Inhibition” value in test [1] is given as 69. On 5-HT transporter, the inhibition at 1 µM is 67%.

As for `CCOC(=O)NC(=S)N1CCC2(CC1)NC(CCSC)C(=O)N2Cc1ccccc1C#N` (stereo not drawn) [Example 146, Ethyl[1-(2-cyanobenzyl)-3-(2-methylsulfanylethyl)-2-oxo-1,4,8-triazaspiro[4,5]decan-8-carbothioyl]-carbamate], in test [1], the “BTX Inhibition” value is 30. Besides, the inhibition at 1 µM at 5-HT transporter came to 30%.

In the case of `CSCCC1NC2(CCN(C(=S)NC(C)c3ccccc3)CC2)N(Cc2ccc3ccccc3c2)C1=O` (stereo not drawn) [Example 148, 3-(2-Methylsulfanylethyl)-1-naphthalin-2-ylmethyl-2-oxo-1,4,8-triazaspiro[4,5]decan-8-thiocarboxylic acid (1-benzol-ethyl)amide], the “BTX Inhibition” value in test [1] amounted to 88. In addition, the “Uptake_5-HT, rat, 1 μM, % inhibition” value at 5-HT transporter is given as 49%.

For `CC(C)C1NC2(CCN(C(=S)Nc3cc(Cl)cc(Cl)c3)CC2)N(Cc2ccccc2)C1=O` (stereo not drawn) [Example 177, 1-Benzyl-3-isopropyl-2-oxo-1,4,8-triazaspiro[4,5]decan-8-thiocarboxylic acid (3,5-dichlorobenzol)amide], in test [1], the “BTX Inhibition” value is given as 46. Further, on 5-HT transporter, the “Uptake_5-HT, rat, 1 μM, % inhibition” value was found to be 36%.

For the compound `CSCCC1NC2(CCN(C(=S)Nc3ccccc3C)CC2)N(Cc2ccc(F)cc2)C1=O` (stereo not drawn) [Example 186, 1-(4-Fluorobenzyl)-3-(2-methylsulfanylethyl)-2-oxo-1,4,8-triazaspiro[4,5]decan-8-thiocarboxylic acid o-tolylamide], in test [1], the “BTX Inhibition” value came to 52. In addition, on 5-HT transporter, the inhibition at 1 µM stood at 55%.

For `CSCCC1NC2(CCN(C(=S)Nc3cccc(C#N)c3)CC2)N(Cc2ccc(F)cc2)C1=O` (stereo not drawn) [Example 192, 1-(4-Fluorobenzyl)-3-(2-methylsulfanylethyl)-2-oxo-1,4,8-triazaspiro[4,5]decan-8-thiocarboxylic acid (3-cyanobenzol)amide], the “BTX Inhibition” value in test [1] was 35. Also, on 5-HT transporter, the “Uptake_5-HT, rat, 1 μM, % inhibition” value was determined as 38%.

In the case of `CCOc1ccc(NC(=S)N2CCC3(CC2)NC(CCSC)C(=O)N3Cc2ccc(F)cc2)cc1` (stereo not drawn) [Example 200, 1-(4-Fluorobenzyl)-3-(2-methylsulfanylethyl)-2-oxo-1,4,8-triazaspiro[4,5]decan-8-thiocarboxylic acid (4-ethoxy-benzol)amide], in test [1], the “BTX Inhibition” value is recorded as 30. For the same compound, on 5-HT transporter, the “Uptake_5-HT, rat, 1 μM, % inhibition” value is recorded as 30%.

Turning to `CC(=O)c1cccc(NC(=S)N2CCC3(CC2)NC(Cc2ccccc2)C(=O)N3Cc2ccccc2F)c1` (stereo not drawn) [Example 201, 3-Benzyl-1-(2-fluorobenzyl)-2-oxo-1,4,8-triazaspiro[4,5]decan-8-thiocarboxylic acid (3-acetylbenzol)amide], the “BTX Inhibition” value in test [1] is 63. Moreover, at 5-HT transporter, the “Uptake_5-HT, rat, 1 μM, % inhibition” value came out at 54%.

Consider `CN1C(=O)C(Cc2ccccc2)NC12CCN(C(=O)NC1CCCCC1)CC2` (stereo not drawn) [Example 202, 3-Benzyl-1-methyl-2-oxo-1,4,8-triazaspiro[4,5]decan-8-carboxylic acid cyclohexylamide], for which, in test [1], the “BTX Inhibition” value was determined as 56. For the same compound, the inhibition at 1 µM at 5-HT transporter stood at 34%.

For `CCCCN1C(=O)C(CCSC)NC12CCN(C(=O)Nc1ccccc1)CC2` (stereo not drawn) [Example 207, 1-Butyl-3-(2-methylsulfanylethyl)-2-oxo-1,4,8-triazaspiro[4,5]decan-8-carboxylic acid benzolamide], the “BTX Inhibition” value in test [1] is 35. The “Uptake_5-HT, rat, 1 μM, % inhibition” value on 5-HT transporter is reported as 39%.

As for `CCCCN1C(=O)C(CCSC)NC12CCN(C(=O)Nc1ccc(OCC)cc1)CC2` (stereo not drawn) [Example 221, 1-Butyl-3-(2-methylsulfanylethyl)-2-oxo-1,4,8-triazaspiro[4,5]decan-8-carboxylic acid (4-ethoxy-benzol)amide], the “BTX Inhibition” value in test [1] worked out at 44. Besides, the “Uptake_5-HT, rat, 1 μM, % inhibition” value at 5-HT transporter is 47%.

`CCCCN1C(=O)C(CCSC)NC12CCN(C(=O)Nc1ccc(Cl)c(C(F)(F)F)c1)CC2` (stereo not drawn) [Example 227, 1-Butyl-3-(2-methylsulfanylethyl)-2-oxo-1,4,8-triazaspiro[4,5]decan-8-carboxylic acid (4-chloro-3-trifluoromethylbenzol)amide]: in test [1], the “BTX Inhibition” value stood at 85. Moreover, the “Uptake_5-HT, rat, 1 μM, % inhibition” value at 5-HT transporter was 58%.

In the case of `O=C(Nc1cc(F)ccc1F)N1CCC2(CC1)NC(Cc1ccccc1)C(=O)N2Cc1ccccc1F` (stereo not drawn) [Example 230, 3-Benzyl-1-(2-fluorobenzyl)-2-oxo-1,4,8-triazaspiro[4,5]decan-8-carboxylic acid (2,5-difluorobenzol)amide], in test [1], the “BTX Inhibition” value amounted to 78. In addition, the “Uptake_5-HT, rat, 1 μM, % inhibition” value at 5-HT transporter is given as 63%.

With `O=C(NCc1ccc(Cl)c(Cl)c1)N1CCC2(CC1)NC(Cc1ccccc1)C(=O)N2Cc1ccccc1F` (stereo not drawn) [Example 233, 3-Benzyl-1-(2-fluorobenzyl)-2-oxo-1,4,8-triazaspiro[4,5]decan-8-carboxylic acid 3,4-dichlorobenzylamide], the “BTX Inhibition” value in test [1] came to 85. In addition, the inhibition at 1 µM at 5-HT transporter was found to be 44%.

In the case of `CSCCC1NC2(CCN(C(=O)Nc3cccc(C(C)=O)c3)CC2)N(Cc2ccccc2C#N)C1=O` (stereo not drawn) [Example 234, 1-(2-Cyanobenzyl)-3-(2-methylsulfanylethyl)-2-oxo-1,4,8-triazaspiro[4,5]decan-8-carboxylic acid (3-acetylbenzol)amide], the “BTX Inhibition” value in test [1] is reported as 31. The “Uptake_5-HT, rat, 1 μM, % inhibition” value on 5-HT transporter is reported as 45%.

For `CCOC(=O)c1ccc(NC(=O)N2CCC3(CC2)NC(Cc2ccccc2)C(=O)N3Cc2ccccc2F)cc1` (stereo not drawn) [Example 235, Ethyl 4-{[3-benzyl-1-(2-fluorobenzyl)-2-oxo-1,4,8-triazaspiro[4,5]decan-8-carbonyl]-amino}-benzoate], in test [1], the “BTX Inhibition” value was found to be 77. On 5-HT transporter, the inhibition at 1 µM worked out at 65%.

As for `CSCCC1NC2(CCN(C(=O)Nc3ccc(OC(F)(F)F)cc3)CC2)N(Cc2ccc(F)cc2)C1=O` (stereo not drawn) [Example 237, 1-(4-Fluorobenzyl)-3-(2-methylsulfanylethyl)-2-oxo-1,4,8-triazaspiro[4,5]decan-8-carboxylic acid (4-trifluoromethoxy-benzol)amide], the “BTX Inhibition” value in test [1] stood at 87. Besides, the “Uptake_5-HT, rat, 1 μM, % inhibition” value on 5-HT transporter is given as 39%.

Regarding `O=C(NC1CCCCC1)N1CCC2(CC1)NC(Cc1ccccc1)C(=O)N2Cc1ccccc1F` (stereo not drawn) [Example 238, 3-Benzyl-1-(2-fluorobenzyl)-2-oxo-1,4,8-triazaspiro[4,5]decan-8-carboxylic acid cyclohexylamide], the “BTX Inhibition” value in test [1] is on record as 73. Moreover, on 5-HT transporter, the inhibition at 1 µM is 43%.
